From US20070117864A1, “Composition for preventing and treating hepatoma” (Tokyo University of Agr. & Tech. TLO Co., Ltd., priority 2003, published 2007)

Legend:
Format in all cases: cell-based, rat
AH109A cells [1] = experiment: in vitro invasion assay of AH109A cells beneath mesothelial cell (M-cell) monolayer
Description: The tumor invasion activity was measured using a partially modified version (Miura Y., Shiomi H., Sakai F., and Yagasaki K. 1997 Assay systems for screening food components that have anti-proliferative and anti-invasive activity to rat ascites hepatoma cells: In vitro and ex vivo effects of green tea extract. Cytotechnology 23: 127-132) of the in vitro invasion assay method of Akedo et al (Akedo H, Shinkai K, Mukai M, Mori Y, Tateishi R, Tanaka K, Yamamoto R, Morishita T. Interaction of rat ascites hepatoma cells with cultured mesothelial cell layers: a model for tumor invasion. Cancer Res. 1986 May; 46(5):2416-22).
Mesothelial cells (M-cells) directly prepared from rat mesenteries to culture were cultured for 7 to 10 days until a confluent monolayer was formed, and subsequently, the medium was changed to 3 ml of the respective experimental media. AH109A cells were overlayed onto the mesothelial cells at the density of 2.4×10^4 cells, and were gently agitated, and were cultured in a CO2 incubator. […] The numbers of cells and numbers of colonies of the AH109A cells that had infiltrated beneath the mesothelial cell monolayer were counted in 10 places of 2-mm square divisions selected at random for 1 dish, and the mean values of the numbers obtained by calculating these counts per square centimeter were taken as an index of the tumor invasion activity. […]

M-cells = experiment: proliferative activity of M-cells by [3H]thymidine incorporation; conditions: in vitro
Description: Male Donryu rats (4 to 10 weeks of age) were anesthetized by intraperitoneal injection of Nembutal at the dose of 5 mg/0.1 ml/100 g of body weight, and blood was collected by cutting the carotid artery. Subsequently, following disinfection using a hibiten solution, the abdomens of the animals were opened in a clean bench, and the mesenteric membranes were removed one by one and washed with PBS (−), and were then recovered in another 15 ml of PBS (−). The same amount of 0.5% trypsin in PBS (−) was added, and the preparation was agitated for 20 minutes at 37° C. Subsequently, 5 ml of a 10% CS/MEM was added, to stop the trypsin reaction. Then, the preparation was subjected to pipetting by means of a Komagome Pipette, and filtrated using a metal mesh. The filtrate was centrifuged for 10 minutes at 1500 rpm (440×g), 4° C., and was washed with PBS (−). The collected cells were inoculated into a 6 cm dish with an attached grid (2 mm square) at the density of 1.5 to 2.0×10^5 cells. The medium of 10% CS/MEM was used, and the medium was changed on the day following collection and every other day thereafter. […] Subsequently, the proliferation activity was measured as above-mentioned in (3).

AH109A cells [2] = experiment: cell cycle analysis of hepatoma cells by PI staining and flow cytometry
Description: The effects of 6.25 μM and 12.5 μM ENL on the cell cycle of AH109A cells were analyzed. The AH109A cells were inoculated into a 6-well plate (NUNC) at the density of 2.5×10^5 cells per well, and the cells were cultured for 0, 24 and 48 hours at 37° C. in a CO2 incubator. The AH109A cells cultured under the respective treatment conditions were recovered in 2-ml sampling tubes (Nippon Genetex, Tokyo); these cells were centrifuged for 5 minutes at 1000 rpm (190×g), 4° C., and then washed twice with PBS (−). Subsequently, 300 μl of a PI solution (1 mg propidium iodide (SIGMA)/20 ml 0.1% Triton X-100, 0.1% sodium citrate (Wako Pure Chemical Industries)) was added, and the preparation was dyed by allowing the preparation to kept quietly on ice for 30 minutes with the light blocked. The cell cycle was analyzed with a flow cytometer (EPICS ELITE ESP; Beckman-Coulter, Hialeah, Fla., USA).

[3] = ENL treatment for 24 hours, versus 0 μM control

O=C1OCC(Cc2cccc(O)c2)C1Cc1cccc(O)c1 (stereo not drawn) [Enterolactone, enterolactone]
ENL concentration at which cell toxicity was seen in the M-cells of the invasion assay system (AH109A cells [1]; M-cells in tumor invasion assay): ≥ 25 µM
effect on tumor invasion of AH109A cells (AH109A cells [1]; in vitro, 24 hours on M-cell monolayer): dose-dependent inhibitory effect
proliferation of M-cells (normal cells) (M-cells): inhibit the proliferation of M-cells in a dose-dependent manner
effect on the cell cycle (AH109A cells [2]; ENL treatment for 0 hours, various concentrations): no effect
proportion of the G1 phase (AH109A cells [2]; [3]): increase
proportion of the S phase (AH109A cells [2]; [3]): decrease
